Results on one molecule are retold here after patent publication US20240190872A1, “FABI INHIBITORS FOR GRAM-NEGATIVE PATHOGENS” (THE BOARD OF TRUSTEES OF THE UNIVERSITY OF ILLINOIS, priority 2021, published 2024).

In one data set the test system is A. baumannii AR 0033. The data set is described as follows: microbe, parasite or virus in culture. In kind it is cell-based. The note with it: Acinetobacter baumannii, AR0033, read-out: MIC A. baumannii AR 0033, clinical isolate. In short, it runs like this:
(§1)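 Testing follows the Clinical and Laboratory Standards Institute micro-dilution protocol. Cultures are set up in cation-adjusted Mueller-Hinton broth. Three biological replicates are run.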

For a further data set, the system named is A. baumannii AR 0273. In words: microbe, parasite or virus in culture. To be noted: Acinetobacter baumannii, AR0273, read-out: MIC A. baumannii AR 0273, clinical isolate. In kind it is cell-based. In outline: as §1
A further data set concerns A. baumannii AR 0299. The data set is described as follows: microbe, parasite or virus in culture. To be noted: Acinetobacter baumannii, AR0299, read-out: MIC A. baumannii AR 0299, clinical isolate. In kind it is cell-based. In outline:
as §1

The test system of another data set is A. baumannii AR 0313. The data set is described as follows: microbe, parasite or virus in culture. To be noted: Acinetobacter baumannii, AR0313, read-out: MIC A. baumannii AR 0313, clinical isolate. The class given is cell-based. In short, it runs like this:
as §1

Another data set relates to E. coli AR 0048. The data set is described as follows: microbe, parasite or virus in culture. The note with it: Escherichia coli, AR0048, read-out: MIC E. coli AR 0048, clinical isolate. In kind it is cell-based. In short, it runs like this:
as §1

For the next data set, the system named is E. coli AR 0085. In words: microbe, parasite or virus in culture. The class given is cell-based. The note with it: Escherichia coli, AR0085, read-out: MIC E. coli AR 0085, clinical isolate. In outline:
as §1

The test system of a further data set is K. pneumoniae AR 0066. In words: microbe, parasite or virus in culture. In kind it is cell-based. To be noted: Klebsiella pneumoniae, AR0066, read-out: MIC K. pneumoniae AR 0066, clinical isolate. In outline: as §1
For the next data set, the system named is K. pneumoniae AR 0113. The data set is described as follows: microbe, parasite or virus in culture. The class given is cell-based. The note with it: Klebsiella pneumoniae, AR0113, read-out: MIC K. pneumoniae AR 0113, clinical isolate. In outline: as §1
In the next data set the test system is K. pneumoniae AR 0560. In words: microbe, parasite or virus in culture. The class given is cell-based. The note with it: Klebsiella pneumoniae, AR0560, read-out: MIC K. pneumoniae AR 0560, clinical isolate. In outline: as §1
Data set [1] deals with carbapenem resistant E. coli. The data set is described as follows: MIC against infecting strain of the UTI model. The note with it: Escherichia coli; extensively resistant carbapenem resistant E. coli of UTI model. The class given is cell-based. Here is the method:
(§2) UTIs represent one of the biggest risks for healthy individuals in terms of exposure to antibiotic-resistant bacteria and many individuals contract one in their lifetime (roughly 1 in 2 women and 1 in 10 men); as such, these infections from Gram-negative pathogens, particularly those that are drug-resistant, remain a major clinical challenge. As E. coli is the causative agent in the great majority of UTIs fabimycin was evaluated in a murine UTI model with a challenging, extensively resistant strain of carbapenem resistant E. coli (fabimycin MIC=2 μg/mL). When dosed at 33.3 mg/kg, TID fabimycin was able to achieve 3.0, 2.8, 2.9, and 1.9 log10 reductions in bacterial load relative to the vehicle in the spleen, bladder, liver, and kidneys tissues, respectively (FIG. 4).

A short description of the next data set: Plasma stability. In kind it is in vitro ADME.
Another data set concerns A. baumannii AR-88. The data set is described as follows: Neutropenic mouse thigh infection. In kind it is in vivo, female BALB/c mice. Here is the method: FIG. 7. […] A) Neutropenic mouse thigh infection model initiated in female BALB/c mice with A. baumannii AR-88 (1.36×10^5 CFU per mouse intramuscular, left thigh) were treated with vehicle (5 mice) or fabimycin (10 mice) four times a day (75 mg/kg intravenously) and bacterial burden evaluated at 26 h post-infection. B) Neutropenic mouse thigh infection initiated in CD-1 mice with S. aureus USA300 LAC (2.3×10^6 CFU per mouse intramuscular in thigh) were treated with vehicle (8 mice) or FabI inhibitor (8 mice per group) 2 and 7 h post-infection (5 mg/kg retro-orbital IV), and the bacterial burden was evaluated 24 h post-infection.
With formulation, MTD, and pharmacokinetic data in hand, the efficacy of fabimycin was evaluated in murine infection models. To start, a comparative assessment was made of fabimycin and Debio-1452-NH3 in two murine neutropenic infection models using a dosing regimen that is at the MTD for Debio-1452-NH3 but below the MTD for fabimycin (three doses, intramuscular, at 50 mg/kg).
Chart 1. Summary of Fabimycin in vivo models.

The subject of a further data set is E. coli AR-55. In words: Murine urinary tract infection (UTI) model. In kind it is in vivo, C3H/HeJ mice. To be noted: TID. Here is the method: FIG. 4. In-vivo efficacy of fabimycin in a murine UTI. After inducing diuresis, infection initiated in C3H/HeJ mice (8 per arm, 1.38×10^9 CFU/mouse transurethral) with E. coli AR-55 and treated with fabimycin at varying concentrations three times daily with bacterial enumeration at 168 h post-infection. Percentage in parenthesis indicates the percentage of animals with bacterial counts below the limit of detection (LOD).
as §2
Chart 1. Summary of Fabimycin in vivo models. Log reductions are relative to the vehicle. • S. aureus • Neutropenic thigh infection w/S. aureus USA300 LAC • 5 mg/kg, r.o. • 26 h, 2.6 log reduction • A. baumannii • Neutropenic thigh infection w/A. baumannii AR-0299 • 50 mg/kg, intramuscular (2, 6, and 11 h post-infection) • 26 h, 2.3 log reduction • Acute lung infection w/A. baumannii AR-0299 • 50 mg/kg, intramuscular (QD) • 48 h, 3.9 log reduction • Neutropenic thigh infection w/A. baumannii AR-0088 • 75 mg/kg IV, QID • 26 h, 1.75 log reduction • E. coli • Urinary tract infection w/E. coli AR-0055 • 33.3 mg/kg IV, TID (100 mg/kg a day) • 168 h post-infection • Bladder—2.78 log reduction • Liver—2.85 log reduction • Spleen—3.04 log reduction • Kidneys—1.85 log reduction • Urine—2.32 log reduction

The mark [2] stands for this setting: 33.3 mg/kg IV, 168 h post-infection.

In brackets after ≈: the same amount, converted by molar mass.

Regarding `Cc1c(CN(C)C(=O)/C=C/c2cnc3c(c2)CC[C@H](N)C(=O)N3)oc2ccccc12` [(S)-11, (S,E)-3-(7-amino-8-oxo-6,7,8,9-tetrahydro-5H-pyrido[2,3-b]azepin-3-yl)-N-methyl-N-((3-methylbenzofuran-2-yl)methyl)acrylamide], the MIC in the data set with A. baumannii AR 0033 is 8 µg/mL (≈ 19.8 µM); with A. baumannii AR 0273, 4 µg/mL (≈ 9.89 µM); in the data set with A. baumannii AR 0299, 2 µg/mL (≈ 4.94 µM); in the data set with A. baumannii AR 0313 it was 4 µg/mL (≈ 9.89 µM); with E. coli AR 0048, 2 µg/mL (≈ 4.94 µM); in the data set on E. coli AR 0085, 1 µg/mL (≈ 2.47 µM). In addition, the MIC worked out at 4 µg/mL (≈ 9.89 µM) in the data set with K. pneumoniae AR 0066, 4 µg/mL (≈ 9.89 µM) in the data set on K. pneumoniae AR 0113, 4 µg/mL (≈ 9.89 µM) with K. pneumoniae AR 0560 and 2 µg/mL (≈ 4.94 µM) in data set [1]. Besides, the “stability in rat plasma (in words)” value in “Plasma stability” is given as “excellent stability”. The “log reduction relative to the vehicle” value in the data set with A. baumannii AR-88 (75 mg/kg IV, QID, 26 h) came to 1.75 log. Moreover, the “reduction of bacterial burden” value in the data set on A. baumannii AR-88 (NDM-1 containing A. baumannii, neutropenic thigh) is listed as ~2 log(CFU/thigh). In addition, the “log reduction relative to the vehicle, Bladder” value with E. coli AR-55 (setting [2]) was 2.78 log. Besides, the “log reduction relative to the vehicle, Kidneys” value with E. coli AR-55 (setting [2]) was found to be 1.85 log. The “log reduction relative to the vehicle, Liver” value with E. coli AR-55 (setting [2]) was 2.85 log. Also, the “log reduction relative to the vehicle, Spleen” value in the data set with E. coli AR-55 (setting [2]) came out at 3.04 log. In addition, in the data set on E. coli AR-55 (setting [2]), the “log reduction relative to the vehicle, Urine” value is reported as 2.32 log. Besides, the “log10 reduction in bacterial load relative to the vehicle, bladder” value in the data set with E. coli AR-55 (33.3 mg/kg) is reported as 2.8 log10. The “log10 reduction in bacterial load relative to the vehicle, kidneys” value with E. coli AR-55 (33.3 mg/kg) is 1.9 log10. In addition, the “log10 reduction in bacterial load relative to the vehicle, liver” value with E. coli AR-55 (33.3 mg/kg) is 2.9 log10. Besides, in the data set on E. coli AR-55 (33.3 mg/kg), the “log10 reduction in bacterial load relative to the vehicle, spleen” value was 3.0 log10.
